From ChEMBL document CHEMBL1201862, “PubChem BioAssay data set” (2004) come the findings set out here.

The nature of test [1]: cells. The class given is functional, cell-based.
Test [2] in a line: cells. The class given is functional, cell-based. This is another data set of the same source.
The nature of test [3]: Luminescence Cell-Based Dose Response HTS to Identify Inhibitors of 5'UTR Stem-Loop Driven Prion Protein mRNA Translation in H4 Neuroglioblastoma Cells. [Related pubchem assays: 1827 (Project Summary), 1813 (Primary HTS)]. It counts as functional.
Test [4] in a line: luciferase reporter signal suppression in cells – H4 neuroglioma cells, luminescence, dose response (AID 1990). It counts as functional, cell-based.
The test system of the next test is INS1. In words: INS-1E survival protection against cytokine death – cell-based, luminescence, retest, dose response (AID 449756).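 Further: cell death triggered by IL-1 beta plus TNF-alpha plus IFN-gamma mixture; protective hits raise ATP signal compared with cytokine alone wells.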 It counts as functional. As to conditions: Rattus norvegicus.
A short description of test [5]: alpha-synuclein stem-loop luciferase translation blockers – H4 neuroglioma cells, luminescence, confirmation (AID 1988). It counts as functional, cell-based.
Test [6] has as its target T1, Corticotropin-releasing factor receptor 2/Corticotropin-releasing factor-binding protein (Homo sapiens, UniProt P24387+Q13324).
T1 sequence (Q13324 whole entry): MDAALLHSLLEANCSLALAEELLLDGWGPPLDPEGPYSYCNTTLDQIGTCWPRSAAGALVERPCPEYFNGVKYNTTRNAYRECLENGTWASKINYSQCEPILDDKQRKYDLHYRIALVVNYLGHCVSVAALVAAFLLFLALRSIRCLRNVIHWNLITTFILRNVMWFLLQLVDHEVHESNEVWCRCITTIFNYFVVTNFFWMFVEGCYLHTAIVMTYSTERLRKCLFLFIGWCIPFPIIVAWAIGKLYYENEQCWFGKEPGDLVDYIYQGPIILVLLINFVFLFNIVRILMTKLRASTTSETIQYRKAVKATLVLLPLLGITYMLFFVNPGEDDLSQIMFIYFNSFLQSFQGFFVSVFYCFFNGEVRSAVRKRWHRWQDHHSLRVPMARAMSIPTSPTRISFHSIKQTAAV
T1 sequence (P24387 whole entry): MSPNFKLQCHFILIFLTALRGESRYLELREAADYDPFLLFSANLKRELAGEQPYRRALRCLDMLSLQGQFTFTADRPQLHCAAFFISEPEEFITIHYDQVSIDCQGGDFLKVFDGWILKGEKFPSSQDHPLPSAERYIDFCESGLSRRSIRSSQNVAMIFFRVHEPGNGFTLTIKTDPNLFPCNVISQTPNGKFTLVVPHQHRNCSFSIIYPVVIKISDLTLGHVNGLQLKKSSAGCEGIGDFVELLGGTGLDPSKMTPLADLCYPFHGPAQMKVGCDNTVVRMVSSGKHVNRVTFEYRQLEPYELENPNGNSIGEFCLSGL
In words: activators of CRF receptor 2 with binding protein – uHTS hits, confirmation (AID 602473). The class given is functional. As to conditions: read-out: EC50_Mean.

A short description of test [7]: microbe, parasite or virus in culture. As to conditions: Mycobacterium tuberculosis. The class given is functional.
Test [8] can be described thus: fluconazole-exposed Candida albicans growth modulators – fluorescence, retest, confirmation (AID 2467). It counts as functional, cell-based.
Test [9] in a line: NIH-3T3 fibroblast cytotoxicity, dose response, cytotoxicity control, cell-based, fluorescence, Alamar Blue, secondary assay (AID 2327).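 Further: NIH-3T3 mouse fibroblasts cultured with fluconazole at 8 µg/mL.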 It counts as functional.
Test [10] can be described thus: P. falciparum Dd2 growth inhibitors, dose response, SYBR Green, cherry-picked samples (AID 1159567). The class given is functional, cell-based.
A short description of test [11]: HIV-1 AD8 envelope cell-cell fusion blockers – cherry-pick, dose response (AID 652062).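 Further: luciferase signal from cell-cell fusion driven by HIV-1 clade B AD8 Env; potency is for inhibitors of fusion seen as a drop in luminescence.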 It counts as functional, cell-based.
The nature of test [12]: blockers of HIV-1 envelope-mediated cell-cell fusion – cherry-pick, dose response (AID 652057). The class given is functional, cell-based.
Test [13] can be described thus: blockers of HIV-1 ZM109 envelope-driven cell-cell fusion – HeLa effector, CEM target cells, luciferase, cherry-pick, dose response (AID 652058).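 Further: luciferase signal from HIV-1 Env mediated cell-cell fusion of effector and target cells.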 The class given is functional, cell-based.
The nature of test [14]: viability of PTEN-deleted HCT116 cells – cell-based, HCT116 PTEN knockout, dose response (AID 1047).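 Further: HCT116 colon tumor cells with PTEN knocked out; cells exposed to compound for 60 hours before readout; potency for loss of cell viability measured by luminescence.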 It counts as functional.
Test [15] can be described thus: viability of HCT116 lacking mutant beta-catenin – cell-based, human colon tumor, dose response (AID 1045).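 Further: HCT116 colon tumor cells with beta catenin knocked out; cells exposed to compound for 60 hours.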 It counts as functional.
The target in the next test is Paired box protein Pax-8 (Homo sapiens, UniProt Q06710). In words: PAX8 transcriptional activity inhibition in RMG-I – RMG-I cells, luciferase, cherry-pick, dose response (AID 687027).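 Further: luciferase reporter driven by Pax8 target thyroperoxidase promoter measured by SteadyGlo luminescence.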 The class given is functional, cell-based.
Sequence of Paired box protein Pax-8 (Q06710 whole entry): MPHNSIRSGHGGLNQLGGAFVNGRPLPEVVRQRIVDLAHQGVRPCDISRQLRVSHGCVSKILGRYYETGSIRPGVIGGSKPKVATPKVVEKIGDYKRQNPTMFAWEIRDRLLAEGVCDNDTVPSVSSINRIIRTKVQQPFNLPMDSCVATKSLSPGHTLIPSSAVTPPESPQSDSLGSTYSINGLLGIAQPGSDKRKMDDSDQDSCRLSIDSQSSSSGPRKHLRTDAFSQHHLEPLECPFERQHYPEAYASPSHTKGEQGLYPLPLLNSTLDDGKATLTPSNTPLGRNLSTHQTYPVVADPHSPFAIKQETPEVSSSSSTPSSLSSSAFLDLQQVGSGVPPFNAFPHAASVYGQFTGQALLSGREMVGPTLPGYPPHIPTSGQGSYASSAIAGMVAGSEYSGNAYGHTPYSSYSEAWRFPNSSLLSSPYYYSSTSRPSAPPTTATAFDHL
Test [16] concerns Streptococcus sp. 'group A'. In words: Streptococcus pyogenes SK(-)GAS viability under kanamycin – luminescence, BacTiterGlo, confirmation, counter-screen for streptokinase expression inhibitor project, dose response (AID 1900). The class given is functional, organism-based. As to conditions: read-out: EC50.
Another test addresses T2, Streptokinase A (Streptococcus pyogenes serotype M1, UniProt P10520).
T2 sequence (P10520 whole entry): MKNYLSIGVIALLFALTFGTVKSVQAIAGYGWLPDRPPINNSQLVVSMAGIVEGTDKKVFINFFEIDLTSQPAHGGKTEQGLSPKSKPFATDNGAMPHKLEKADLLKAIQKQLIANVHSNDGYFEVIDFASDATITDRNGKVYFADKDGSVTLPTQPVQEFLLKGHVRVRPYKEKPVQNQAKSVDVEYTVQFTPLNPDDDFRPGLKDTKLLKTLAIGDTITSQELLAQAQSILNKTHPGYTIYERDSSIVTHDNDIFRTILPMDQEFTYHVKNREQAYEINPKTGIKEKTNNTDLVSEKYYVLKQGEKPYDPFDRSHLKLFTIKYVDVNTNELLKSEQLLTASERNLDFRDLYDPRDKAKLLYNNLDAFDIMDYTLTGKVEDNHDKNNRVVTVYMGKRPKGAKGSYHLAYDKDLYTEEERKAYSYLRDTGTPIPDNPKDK
Kind of test: viability-normalized secreted streptokinase activity reduction – plasminogen activation absorbance, OD405, dose response (AID 1914).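 Further: secreted streptokinase activity via plasminogen activation per viability signal from cell pellet.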 The class given is functional, Streptococcus pyogenes M1 GAS.

The test system of a further test is Streptococcus. In words: GAS UMAA2166 growth inhibition – luminescence, BacTiterGlo, counter-screen for streptokinase expression inhibitor project, dose response (AID 1915).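 Further: potency for reduction of bacterial viability or growth.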 The class given is functional, organism-based. (In general: The purpose of a counterscreen is to sort out artefacts and off-target activity.)
A short description of test [17]: Luminescence Cell-Based Dose Retest to Confirm Inhibitors of Cancer Stem Cells. [Related pubchem assays (depositor defined):AID2717, AID2721]. It counts as functional, Homo sapiens. As to conditions: Homo sapiens.
The nature of test [18]: Trypanosoma cruzi growth suppression in host cells – NIH3T3 host cells, beta-gal luminescence, confirmation (AID 2044).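 Further: intracellular parasites grown in NIH/3T3 mouse fibroblasts as host cells; luminescent beta-galactosidase reporter signal from transgenic T. cruzi replicating inside host cells; inhibitors lower the luminescence signal.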 The class given is functional, cell-based.
Test [19] in a line: NIH3T3 cell viability loss – ATP luminescence, mouse fibroblasts, counter-screen, dose response (AID 2010).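 Further: cells exposed to compound for about 90 hours before reading.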 The class given is functional, cell-based.
The nature of test [20]: non-specific 3'UTR reporter inhibition in Clone20-Shn3RL – cell-based, Renilla luciferase, cherry-picked, counter-screen for Shn3 inhibitor project, dose response (AID 624133). The class given is functional.
A short description of test [21]: reduction of Shn3 3'UTR-driven luciferase in osteoblasts – cell-based, Clone20 osteoblasts, firefly luciferase, cherry-picked, dose response (AID 624132).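 Further: firefly luciferase luminescence from reporter carrying the Shn3 3'UTR in osteoblasts.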 It counts as functional.
The nature of test [22]: cells. The class given is functional.

Activity calls are given as the source filed them.

With `Cc1ccc(C(=O)CSc2cc(C)nc(O)n2)cc1`, the EC50 in “cells [1]” and in “cells [2]” was > 350 µM (not active) in each case.
`CCCCCCc1cc2cc(C(=O)Nc3cccc(OC)c3)c(=O)oc2cc1O`: the EC50 was 65.8 µM (active) in test [3], > 120 µM (not active) in [4], 16.6 µM (active) in [5] and > 53 µM (inactive) in test [6]. For the same molecule, the concentration at half-maximal activity (AC50) (commonly the concentration giving half of the maximal activity seen) in the test with INS1 is 4.06 µM (active).
On to `C=CCNc1oc(-c2ccc(-c3ccccc3)cc2)nc1C#N`, for which the CC50 in [7] was > 40 µM (active).
Take `Oc1ccc(Cl)cc1CNCC1CCCO1` (stereo not drawn): the EC50 in the test “cells [1]” and in the test “cells [2]” was > 350 µM (not active) each time.
`COc1cccc(/C=N/Nc2cc(-n3nc(C)cc3-c3ccccc3)ncn2)c1O`: the EC50 in [8] is 1.57 µM (active); in the test “cells [1]”, > 350 µM (not active); in test [9], 61 µM (active); in the test “cells [2]”, > 350 µM (not active).
On to `CCCCCN(C(=O)CCC(=O)OCC(=O)c1ccc(C(C)CC)cc1)c1c(N)n(CCCC)c(=O)[nH]c1=O` (stereo not drawn), for which the EC50 in “cells [1]” and in the test “cells [2]” was > 350 µM (not active) throughout.
Turning to `COc1ccccc1NC(=S)NC(=O)Cc1ccc(Cl)cc1`, the EC50 in test [6] was 9.41 µM (active).
For the molecule `C[C@H](CO)N1C[C@H](C)[C@H](CN(C)CC2CC2)Oc2ccc(NS(=O)(=O)c3ccc(Cl)cc3)cc2CC1=O`, in [10], the AC50 is 5.58 µM (active).
On to `C[C@H](CO)N1C[C@H](C)[C@@H](CN(C)Cc2ccc(Cl)c(Cl)c2)Oc2ccc(N(C)C)cc2C1=O`, for which the AC50 in test [11] is 8.23 µM (active); in test [12] it was 10.5 µM (active); in [13], 5.9 µM (active).
In the case of `O=C(NCc1ccco1)c1cc(-c2ccccc2)on1`, the EC50 in “cells [1]” is > 350 µM (not active); in “cells [2]”, 62.4 µM (active).
In the same order, the values of `N=C(NOC(=O)C(c1ccccc1)c1ccccc1)c1cccnc1` are > 350 µM (not active) and > 350 µM (not active).
For `CC1(C)CC(=O)C(CC2C(=O)CC(C)(C)CC2=O)C(=O)C1` the same measures were > 350 µM (not active) and 98.1 µM (active).
Take `NNc1nc2ccc(Cl)cc2s1`: the CC50 in test [7] is > 40 µM (active).
For the molecule `COC(=O)CNC(=O)COC(=O)C(Cc1ccccc1)NC(=O)c1ccco1` (stereo not drawn), the EC50 in test [6] was > 53 µM (inactive).
Consider `CCOC(=O)c1[nH]c(CN2CCN(c3ccc(OC)cc3)CC2)c(C(=O)OCC)c1C`, for which the CC50 in test [7] was > 40 µM (active).
Take `O=c1c(/C=C(\O)c2ccc(F)cc2)nc2ccccc2n1-c1ccccc1`: in test [6], the EC50 is 7.18 µM (active).
Consider `COc1ccc2nc(NC(=O)CSc3nccc(C)n3)sc2c1`, for which the EC50 in the test “cells [1]” and in the test “cells [2]” was > 350 µM (not active) each time.
For `O=C(NC(=S)N1CCc2ccccc21)c1ccc(Br)o1`, the CC50 in test [7] is 39.7 µM (active).
Turning to `COc1ccc2o/c(=N\c3ccccc3)c(-c3nc4ccccc4[nH]3)cc2c1`, the EC50 in [14] is 2.22 µM (active); in test [15] it was 2.59 µM (active).
Consider `C[C@H]1CN([C@@H](C)CO)S(=O)(=O)c2ccc(C#Cc3ccccc3F)cc2O[C@H]1CN(C)C(=O)c1ccc2c(c1)OCO2`, for which the half-maximal activity concentration (AC50) at Paired box protein Pax-8 was 5.76 µM (active); in test [10], 5.07 µM (active).
Take `Cc1oc(-c2ccc(Cl)cc2)nc1C[S+]([O-])CC(=O)NCCN1CCCCCC1` (stereo not drawn): the EC50 in “cells [1]” and in the test “cells [2]” was > 350 µM (not active) each time.
Consider `CCN1C(NCCc2ccc(Br)cc2)=N[C@@H](c2ccccc2)[C@H](C(=O)OC)[C@H]1C`, for which the CC50 in test [7] was 34.3 µM (active).
As for `CCCNC(=O)C[C@H]1CC[C@@H]2[C@@H](COc3ccc(NC(=O)c4cccc(C(F)(F)F)c4)cc3C(=O)N2C)O1`, the half-maximal activity concentration (AC50) in test [11] was 12.7 µM (active); in test [12], 36 µM (active); in [13], 5.51 µM (active).
For `CC(C)CN1C(=S)SC(C)(C)C1n1oc(=O)n(-c2ccc(Cl)cc2)c1=O` (stereo not drawn), the EC50 is 4.36 µM (active) in [16]; 21.9 µM (active) in [14]; 5.59 µM (active) on Streptokinase A; 18.8 µM (active) with Streptococcus; 20.7 µM (active) in [15].
Consider `CCOC(=O)/C(=N/Nc1ccccc1)c1csc(Nc2ccccc2)n1`, for which the EC50 was 3.92 µM (active) in [16]; 1.39 µM (active) in [18]; > 30 µM (not active) in test [19]; > 150 µM (not active) on Streptokinase A; 4.88 µM (active) with Streptococcus. In test [7], the CC50 was > 40 µM (active). In addition, the half-maximal activity concentration (AC50) in test [17] is 1.88 µM (active).
On to `COCC(=O)Nc1ccc2c(c1)C(=O)N(C)C[C@@H](OC)[C@H](C)CN(CC1CCCCC1)[C@@H](C)CO2`, for which, in test [10], the AC50 is 6.65 µM (active).
Take `CC(=O)O[C@H]1CC[C@@]2(C)C(=CC[C@H]3[C@@H]4CC[C@H](C(C)=O)[C@@]4(C)CC[C@@H]32)C1`: the AC50 is 29 µM (active) in test [20] and 28.5 µM (active) in [21].
`COc1ccc(CC(=O)Nc2ccc(-c3noc(-c4ccc(Cl)cc4)n3)cc2)cc1`: the EC50 in test [14] was 2.11 µM (active); in [15], 1.69 µM (active).
Take `CC(C(=O)N1CCOCC1)N1c2cccc3cccc(c23)S1(=O)=O` (stereo not drawn): the EC50 in “cells [1]” and in the test “cells [2]” was > 350 µM (not active) in each case.
Turning to `N#C[C@@H]1[C@@H](c2ccc(C#CC3CCCCC3)cc2)[C@H](CO)N1C(=O)Nc1ccc(F)cc1`, in test [10], the half-maximal activity concentration (AC50) is 5.12 µM (active).
As to `O=C(Nc1nnc(C2=COCCO2)o1)c1ccc(Cc2ccccc2)cc1`, the EC50 was 2.54 µM (active) in [16] and 3.96 µM (active) in the test with Streptococcus. Further, in test [7], the CC50 is > 40 µM (active). In addition, the 50% inhibitory concentration (IC50) – broadly, the midpoint of a concentration-inhibition curve – in the test “cells [22]” was 10.2 µM (active).
